The values that follow come from patent publication US7915235B2, “High affinity ligands bind to clostridium difficile toxin A” (priority 2006, dated 2011).

Several values for one entry are separate records, joined by “and”; a condition that tells them apart may be missing. Identical values can stand only once.

One assay concerns C. difficile associated diarrhea. To be noted: per protocol population with recurrent CDAD at enrollment; vancomycin or 6 g tolevamer; cited from earlier work.
For `CN[C@H](CC(C)C)C(=O)N[C@H]1C(=O)N[C@@H](CC(N)=O)C(=O)N[C@H]2C(=O)N[C@H]3C(=O)N[C@H](C(=O)N[C@H](C(=O)O)c4cc(O)cc(O)c4-c4cc3ccc4O)[C@H](O)c3ccc(c(Cl)c3)Oc3cc2cc(c3O[C@@H]2O[C@H](CO)[C@@H](O)[C@H](O)[C@H]2O[C@H]2C[C@](C)(N)[C@H](O)[C@H](C)O2)Oc2ccc(cc2Cl)[C@H]1O` [vancomycin], the definitive recurrence rate is on record as 27%.

Still in this assay, the particulars now being: per protocol population; 125 mg vancomycin QID or 6 g tolevamer; cited from earlier work.
For the molecule `CN[C@H](CC(C)C)C(=O)N[C@H]1C(=O)N[C@@H](CC(N)=O)C(=O)N[C@H]2C(=O)N[C@H]3C(=O)N[C@H](C(=O)N[C@H](C(=O)O)c4cc(O)cc(O)c4-c4cc3ccc4O)[C@H](O)c3ccc(c(Cl)c3)Oc3cc2cc(c3O[C@@H]2O[C@H](CO)[C@@H](O)[C@H](O)[C@H]2O[C@H]2C[C@](C)(N)[C@H](O)[C@H](C)O2)Oc2ccc(cc2Cl)[C@H]1O` [vancomycin], the “definitive recurrence rate confirmed by a positive toxin assay” value is reported as 19%.

Another assay addresses Clostridium difficile toxin A (Clostridioides difficile, UniProt P16154). To be noted: toxin A applied at 200 micrograms/ml; detected with PCG4 antibody and goat anti-mouse Alexa488.
In the case of GalNAca1-3(Fuca1-2)Galb1-4GlcNAcb-, the “fluorescence (FL) signal” value is 188.
On the same count and under the same terms, next, “Gala1-3(Fuca1-2)Galb1-4(Fuca1-3)GlcNAcb-”: 789; “GalNAca1-3(Fuca1-2)Galb1-4(Fuca1-3)GlcNAcb-”: 327; `CC(=O)N[C@@H]1[C@@H](O[C@@H]2O[C@@H](C)[C@@H](O)[C@@H](O)[C@@H]2O)[C@H](O[C@@H]2O[C@H](CO)[C@H](O)[C@H](O)[C@H]2O)[C@@H](CO)O[C@H]1O` [Lewis×, Galb1-4[Fuca1-3]GlcNAcb]: 122 and 218.
The same measure, in the same setting: next, “NeuAca2-3Galb1-3GlcNAcb1-3Galb1-4GlcNAcb-”: 4435; “Galb1-3(Fuca1-4)GlcNAcb1-3Galb1-4GlcNAcb-”: 29098; “NeuAca2-3Galb1-3(Fuca1-4)GlcNAcb1-3Galb1-4(Fuca1-3)GlcNAcb-”: 14911.
The same measure, in the same setting: under `CC(=O)N[C@@H]1[C@@H](O)[C@H](O[C@@H]2O[C@H](CO)[C@H](O)[C@H](O[C@@H]3O[C@H](CO)[C@H](O)[C@H](O)[C@H]3O)[C@H]2O)[C@@H](CO)O[C@H]1O` [Galb1-3Galb1-4GlcNAcb] stands 172; under Gala1-3Galb1-4(Fuca1-3)GlcNAcb-, 1814.

Another assay relates to C. difficile-associated diarrhea (CDAD). To be noted: oral metronidazole 500 mg TID; oral vancomycin 125 mg every 6 h; cited from earlier work.
For the molecule `Cc1ncc([N+](=O)[O-])n1CCO` [metronidazole], the response rates is listed as ~90%.
Consider `CN[C@H](CC(C)C)C(=O)N[C@H]1C(=O)N[C@@H](CC(N)=O)C(=O)N[C@H]2C(=O)N[C@H]3C(=O)N[C@H](C(=O)N[C@H](C(=O)O)c4cc(O)cc(O)c4-c4cc3ccc4O)[C@H](O)c3ccc(c(Cl)c3)Oc3cc2cc(c3O[C@@H]2O[C@H](CO)[C@@H](O)[C@H](O)[C@H]2O[C@H]2C[C@](C)(N)[C@H](O)[C@H](C)O2)Oc2ccc(cc2Cl)[C@H]1O` [vancomycin], for which the response rates is ~90%.
